According to PMC4392179 (Nature medicine, 2015):
pIC50: −log10 of the molar value.

Tests used:
NLRC4 = NLRC4 (Mus musculus, UniProt Q3UP24); test: NLRC4 inflammasome activation: BMDM stimulated with LPS and S. typhimurium; type: cell-based; details: for NLRC4-stimulated IL-1β secretion / NLRC4-stimulated TNF-α secretion / expression of pro-IL-1β (and pro-caspase-1) in cell lysates: LPS and S. typhimurium; for NLRC4-stimulated IL-1β secretion / NLRC4-stimulated TNF-α secretion: MCC950 up to 10 µM, parthenolide 10 µM
TLR signalling = test: Priming / TLR signalling: BMDM pre-treated and stimulated with LPS or Poly; type: cell-based, mouse; details: for LPS-induced (TLR4) TNF-α secretion / Poly(A:U)-induced (TLR3) TNF-α secretion: BMDM, ELISA
AIM2 inflammasome = target: T1, AIM2 inflammasome (Mus musculus, UniProt Q91VJ1); test: AIM2 inflammasome activation: BMDM stimulated with LPS and transfected Poly; type: cell-based
T1 sequence (Q91VJ1 1-354): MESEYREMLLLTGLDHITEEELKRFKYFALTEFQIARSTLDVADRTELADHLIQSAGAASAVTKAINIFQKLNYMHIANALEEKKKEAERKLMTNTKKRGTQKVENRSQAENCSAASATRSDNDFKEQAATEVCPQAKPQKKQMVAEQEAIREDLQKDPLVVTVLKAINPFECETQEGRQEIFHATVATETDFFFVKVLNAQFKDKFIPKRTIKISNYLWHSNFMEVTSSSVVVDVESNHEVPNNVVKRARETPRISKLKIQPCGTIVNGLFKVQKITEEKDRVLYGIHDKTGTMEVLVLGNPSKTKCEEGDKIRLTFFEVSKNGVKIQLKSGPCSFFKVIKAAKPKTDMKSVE

Aqueous solubility = type: physicochemical; details: sodium salt
CYP 3A4 = CYP 3A4 (Homo sapiens, UniProt P08684); test: CYP inhibition in human liver microsomes, substrate cocktail; details: 10 µM
[1] = target: human ether-a-go-go (hERG) potassium channel (Homo sapiens, UniProt Q12809); test: cell-based
NLRP1 [2] = type: cell-based
Ca2+ flux = test: ATP induced Ca2+ flux in BMDM; details: WT or Ice−/− BMDM
CYP 1A2 = target: T2, CYP 1A2 (Homo sapiens, UniProt P05177); test: CYP inhibition in human liver microsomes, substrate cocktail; details: 10 µM
T2 sequence (P05177 1-516): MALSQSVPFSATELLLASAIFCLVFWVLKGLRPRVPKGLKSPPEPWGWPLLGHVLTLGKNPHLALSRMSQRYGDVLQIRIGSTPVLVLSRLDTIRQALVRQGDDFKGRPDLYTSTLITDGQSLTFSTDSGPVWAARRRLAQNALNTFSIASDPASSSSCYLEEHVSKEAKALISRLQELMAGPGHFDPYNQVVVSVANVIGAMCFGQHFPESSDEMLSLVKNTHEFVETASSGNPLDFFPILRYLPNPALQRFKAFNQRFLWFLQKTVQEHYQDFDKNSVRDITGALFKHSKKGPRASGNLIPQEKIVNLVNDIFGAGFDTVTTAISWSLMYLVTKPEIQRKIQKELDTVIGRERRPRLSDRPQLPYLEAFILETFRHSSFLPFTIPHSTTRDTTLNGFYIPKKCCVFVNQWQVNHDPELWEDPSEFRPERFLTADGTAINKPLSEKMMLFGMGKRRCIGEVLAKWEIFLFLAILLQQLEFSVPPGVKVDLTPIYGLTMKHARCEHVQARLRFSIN

CYP 2C9 = CYP 2C9 (Homo sapiens, UniProt P11712); test: as above; details: 10 µM
EAE = test: Experimental autoimmune encephalomyelitis; type: in vivo, C57BL/6 mice
CYP 2D6 = CYP 2D6 (Homo sapiens, UniProt P10635); test: CYP inhibition in human liver microsomes, substrate cocktail; details: 10 µM
[3] = Stability with human liver microsomes
CYP 2C19 = CYP 2C19 (Homo sapiens, UniProt P33261); test: CYP inhibition in human liver microsomes, substrate cocktail; details: 10 µM
[4] = Stability with mouse liver microsomes
K+ efflux = test: Intracellular K+ by ICP-OES in BMDM; type: cell-based, mouse; details: LPS primed BMDM, MCC950 10–300 nM
NLRP1 [5] = test: Nlrp1a Q593P activating mutation mice; type: in vivo; details: NLRP1 mutant mice, 20 mg/kg i.p. every second day for 9 days; P = 0.7
[6] = LPS and Poly(dA:dT), Bayer compound 40 µM

Chain of NLRC4 (Q3UP24 whole entry): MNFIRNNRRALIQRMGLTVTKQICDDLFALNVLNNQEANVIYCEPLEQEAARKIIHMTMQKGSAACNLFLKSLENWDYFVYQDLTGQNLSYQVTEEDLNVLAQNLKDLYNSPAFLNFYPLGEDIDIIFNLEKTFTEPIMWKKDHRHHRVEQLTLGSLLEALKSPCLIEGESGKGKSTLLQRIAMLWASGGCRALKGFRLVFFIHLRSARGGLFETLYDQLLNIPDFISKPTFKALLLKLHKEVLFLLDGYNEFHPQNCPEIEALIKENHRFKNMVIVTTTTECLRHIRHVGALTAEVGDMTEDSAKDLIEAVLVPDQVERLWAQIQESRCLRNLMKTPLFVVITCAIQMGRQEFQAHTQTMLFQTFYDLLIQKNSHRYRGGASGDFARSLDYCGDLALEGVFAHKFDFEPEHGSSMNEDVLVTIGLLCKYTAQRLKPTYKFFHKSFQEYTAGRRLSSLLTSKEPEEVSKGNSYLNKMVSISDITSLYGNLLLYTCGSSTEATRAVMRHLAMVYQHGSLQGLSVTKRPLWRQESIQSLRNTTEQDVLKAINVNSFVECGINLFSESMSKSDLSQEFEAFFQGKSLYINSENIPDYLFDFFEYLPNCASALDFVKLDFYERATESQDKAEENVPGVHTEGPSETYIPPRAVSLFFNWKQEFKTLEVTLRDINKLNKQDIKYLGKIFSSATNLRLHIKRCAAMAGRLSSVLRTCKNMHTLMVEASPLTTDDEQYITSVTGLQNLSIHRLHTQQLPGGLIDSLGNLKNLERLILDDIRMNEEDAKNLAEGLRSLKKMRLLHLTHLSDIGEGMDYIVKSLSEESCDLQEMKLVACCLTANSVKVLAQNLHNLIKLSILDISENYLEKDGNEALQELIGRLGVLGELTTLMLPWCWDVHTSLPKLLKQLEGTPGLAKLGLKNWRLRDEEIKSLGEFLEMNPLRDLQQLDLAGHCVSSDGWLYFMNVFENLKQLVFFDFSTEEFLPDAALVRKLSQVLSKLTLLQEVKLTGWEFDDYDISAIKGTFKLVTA
Chain of CYP 2C19 (P33261 whole entry): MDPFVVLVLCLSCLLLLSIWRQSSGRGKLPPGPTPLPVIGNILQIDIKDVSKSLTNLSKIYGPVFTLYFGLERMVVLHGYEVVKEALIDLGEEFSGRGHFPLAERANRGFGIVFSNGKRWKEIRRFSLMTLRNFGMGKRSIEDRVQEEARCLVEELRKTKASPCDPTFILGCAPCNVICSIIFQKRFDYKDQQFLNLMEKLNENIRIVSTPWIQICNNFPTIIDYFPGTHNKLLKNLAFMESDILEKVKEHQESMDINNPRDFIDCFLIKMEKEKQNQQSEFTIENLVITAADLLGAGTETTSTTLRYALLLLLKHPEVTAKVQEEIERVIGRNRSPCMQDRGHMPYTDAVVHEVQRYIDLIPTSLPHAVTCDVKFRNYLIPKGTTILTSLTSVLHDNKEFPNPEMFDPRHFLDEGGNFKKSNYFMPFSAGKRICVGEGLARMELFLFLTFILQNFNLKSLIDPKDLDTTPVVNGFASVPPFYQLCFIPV
Chain of CYP 3A4 (P08684 whole entry): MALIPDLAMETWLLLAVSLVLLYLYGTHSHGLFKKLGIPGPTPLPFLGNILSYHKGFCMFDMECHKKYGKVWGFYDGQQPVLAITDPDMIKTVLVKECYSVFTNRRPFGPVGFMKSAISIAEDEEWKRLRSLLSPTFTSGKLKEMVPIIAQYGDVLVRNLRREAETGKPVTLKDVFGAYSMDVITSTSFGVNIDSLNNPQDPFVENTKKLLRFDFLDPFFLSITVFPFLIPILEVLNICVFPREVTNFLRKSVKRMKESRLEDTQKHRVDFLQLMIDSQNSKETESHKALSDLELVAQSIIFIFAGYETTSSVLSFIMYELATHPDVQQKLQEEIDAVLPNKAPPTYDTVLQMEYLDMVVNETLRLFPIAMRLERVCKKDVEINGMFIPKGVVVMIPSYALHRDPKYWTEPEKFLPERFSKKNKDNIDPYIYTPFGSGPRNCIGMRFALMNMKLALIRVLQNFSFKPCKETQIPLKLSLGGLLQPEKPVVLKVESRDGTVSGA
Chain of human ether-a-go-go (hERG) potassium channel (Q12809 whole entry): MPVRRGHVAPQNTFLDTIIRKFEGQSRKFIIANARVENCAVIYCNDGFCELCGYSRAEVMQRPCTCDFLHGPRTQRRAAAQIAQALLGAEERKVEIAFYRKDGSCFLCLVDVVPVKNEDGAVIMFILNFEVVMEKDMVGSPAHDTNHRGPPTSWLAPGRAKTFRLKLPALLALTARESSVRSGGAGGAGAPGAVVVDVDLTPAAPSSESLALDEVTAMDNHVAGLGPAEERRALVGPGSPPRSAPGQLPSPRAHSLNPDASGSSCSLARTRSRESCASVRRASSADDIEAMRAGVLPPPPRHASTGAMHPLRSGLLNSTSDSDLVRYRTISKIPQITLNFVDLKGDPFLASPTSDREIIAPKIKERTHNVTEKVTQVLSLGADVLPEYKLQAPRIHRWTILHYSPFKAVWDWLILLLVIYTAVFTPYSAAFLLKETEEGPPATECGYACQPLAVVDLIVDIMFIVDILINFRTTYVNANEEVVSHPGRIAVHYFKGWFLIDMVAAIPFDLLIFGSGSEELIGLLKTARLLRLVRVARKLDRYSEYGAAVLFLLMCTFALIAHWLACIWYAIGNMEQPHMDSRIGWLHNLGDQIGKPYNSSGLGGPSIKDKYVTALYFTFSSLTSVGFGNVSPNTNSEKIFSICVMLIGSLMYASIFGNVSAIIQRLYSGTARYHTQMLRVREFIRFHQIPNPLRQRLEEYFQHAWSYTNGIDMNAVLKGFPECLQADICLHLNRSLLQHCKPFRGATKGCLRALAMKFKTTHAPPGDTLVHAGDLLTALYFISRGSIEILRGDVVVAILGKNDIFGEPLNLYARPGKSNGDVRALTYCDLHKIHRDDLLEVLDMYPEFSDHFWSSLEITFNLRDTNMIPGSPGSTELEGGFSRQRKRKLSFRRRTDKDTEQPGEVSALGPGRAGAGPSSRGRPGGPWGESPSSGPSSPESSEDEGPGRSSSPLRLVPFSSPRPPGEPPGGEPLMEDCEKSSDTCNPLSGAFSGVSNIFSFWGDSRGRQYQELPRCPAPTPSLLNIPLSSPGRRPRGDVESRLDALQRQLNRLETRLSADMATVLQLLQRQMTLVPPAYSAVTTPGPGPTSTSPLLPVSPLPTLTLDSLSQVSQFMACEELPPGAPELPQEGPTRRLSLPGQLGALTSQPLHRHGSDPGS
Chain of CYP 2C9 (P11712 whole entry): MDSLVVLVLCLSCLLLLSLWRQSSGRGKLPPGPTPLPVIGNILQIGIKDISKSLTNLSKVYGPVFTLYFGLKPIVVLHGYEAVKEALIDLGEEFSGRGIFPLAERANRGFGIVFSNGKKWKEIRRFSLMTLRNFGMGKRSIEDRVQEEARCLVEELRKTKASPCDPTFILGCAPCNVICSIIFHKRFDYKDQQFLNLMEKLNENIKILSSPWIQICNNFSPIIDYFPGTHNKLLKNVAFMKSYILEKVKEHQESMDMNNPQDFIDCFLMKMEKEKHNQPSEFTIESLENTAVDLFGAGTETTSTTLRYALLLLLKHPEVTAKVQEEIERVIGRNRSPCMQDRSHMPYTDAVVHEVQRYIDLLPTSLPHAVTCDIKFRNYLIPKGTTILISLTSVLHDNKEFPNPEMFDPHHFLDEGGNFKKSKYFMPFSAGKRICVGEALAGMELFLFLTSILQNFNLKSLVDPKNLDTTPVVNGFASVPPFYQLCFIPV
Chain of CYP 2D6 (P10635 whole entry): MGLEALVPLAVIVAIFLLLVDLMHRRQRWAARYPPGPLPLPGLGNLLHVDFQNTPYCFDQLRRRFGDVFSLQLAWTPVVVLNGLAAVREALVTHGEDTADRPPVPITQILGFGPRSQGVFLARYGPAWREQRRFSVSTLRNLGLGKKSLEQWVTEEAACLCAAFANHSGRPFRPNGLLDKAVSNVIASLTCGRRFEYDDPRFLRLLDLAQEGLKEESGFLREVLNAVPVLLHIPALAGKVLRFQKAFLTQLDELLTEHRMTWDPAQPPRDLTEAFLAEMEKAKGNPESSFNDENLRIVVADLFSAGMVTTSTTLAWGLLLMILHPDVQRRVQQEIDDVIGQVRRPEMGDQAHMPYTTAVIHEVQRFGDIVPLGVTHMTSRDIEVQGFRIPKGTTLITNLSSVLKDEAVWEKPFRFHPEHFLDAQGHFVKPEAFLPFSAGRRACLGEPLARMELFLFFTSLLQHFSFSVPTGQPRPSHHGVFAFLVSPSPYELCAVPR

C=C1C(=O)O[C@H]2[C@H]1CC/C(C)=C/CC[C@@]1(C)O[C@@H]21 [parthenolide, reference compound]
NLRC4-stimulated IL-1β secretion (NLRC4): attenuated
NLRC4-stimulated TNF-α secretion (NLRC4): attenuated
expression of pro-IL-1β (and pro-caspase-1) in cell lysates (NLRC4; Western blot): attenuated
LPS-induced (TLR4) TNF-α secretion (TLR signalling): abrogated
Poly(A:U)-induced (TLR3) TNF-α secretion (TLR signalling): abrogated

O=C(O)c1ccc(OCCCc2ccc(OCCCC3CCCCC3)cc2)c(C(=O)N2CCC(C(=O)O)CC2)c1 [Bayer compound, 1-(5-carboxy-2{3-[4-(3-cyclohexylpropoxy)phenyl]propoxy}benzoyl)piperidine-4-carboxylic acid, reference compound]
IL-1β secretion (AIM2 inflammasome; [6]): inhibited
Poly(dA:dT) stimulated caspase-1 activation (AIM2 inflammasome; Western blot): inhibited

CC(C)(O)c1coc(S(=O)(=O)[N-]C(=O)Nc2c3c(cc4c2CCC4)CCC3)c1.[Na+] [MCC950 sodium salt]
solubility in aqueous solutions (Aqueous solubility): highly soluble

CC(C)(O)c1coc(S(=O)(=O)NC(=O)Nc2c3c(cc4c2CCC4)CCC3)c1 [MCC950, 1-(1,2,3,5,6,7-hexahydro-s-indacen-4-yl)-3-[4-(1-hydroxy-1-methyl-ethyl)-furan-2-sulfonyl]urea]
IL-1β secretion (AIM2 inflammasome; [6]): did not attenuate
TNF-α secretion (AIM2 inflammasome; [6]): did not attenuate
inhibition of CYP 3A4 (CYP 3A4): less than 15%
pIC50 [1]: < 4.52
NLRC4-stimulated IL-1β secretion (NLRC4): not inhibited
NLRC4-stimulated TNF-α secretion (NLRC4): not inhibited
expression of pro-IL-1β (and pro-caspase-1) in cell lysates (NLRC4; Western blot): not substantially affected
caspase-1 activation / IL-1β processing in response to S. typhimurium (NLRC4; Western blot): did not inhibit
ASC speck formation (NLRP1 [2]): not decreased
ATP induced increase in intracellular Ca2+ (Ca2+ flux): did not substantially affect
inhibition of CYP 1A2 (CYP 1A2): less than 15%
inhibition of CYP 2C9 (CYP 2C9): less than 15%
EAE onset and severity (clinical scores) (EAE; 10 mg/kg i.p. day 0, 1, 2 and every 2 days thereafter): delayed the onset and reduced the severity
frequencies of IL-17 and IFN-γ producing CD3+ T cells in brain mononuclear cells (EAE; day 22, vs PBS-treated mice): modestly reduced
LPS stimulated induction of NLRP3 and pro-IL-1β (TLR signalling; BMDM pre-treated, LPS 4 h, Western blot): not affected
LPS-induced (TLR4) TNF-α secretion (TLR signalling): did not affect
Poly(A:U)-induced (TLR3) TNF-α secretion (TLR signalling): did not affect
inhibition of CYP 2D6 (CYP 2D6): less than 15%
compound remaining after 60 min [3]: more than 70%
inhibition of CYP 2C19 (CYP 2C19): less than 15%
compound remaining after 60 min [4]: more than 70%
K+ efflux triggered by nigericin, ATP and SiO2 (K+ efflux): did not prevent
serum concentrations of IL-18 (NLRP1 [5]): did not significantly alter
